Consider one molecule from US9956157B2, “Composition containing fucosterol for skin whitening or moisturizing” (INDUSTRY-ACADEMIC COOPERATION FOUNDATION, YONSEI UNIVERSITY, priority 2014, dated 2018).

This series relates to B16F10 melanoma cells. Put plainly: MTT cytotoxicity in B16F10 melanoma cells. To be noted: concentration of 0 to 20 μM, 48 hrs, FIG. 1. It is filed as cell-based. As for the experimental part: B16F10 melanoma cells were incubated a dulbecco's modified eagle's media (DMEM) medium including 10% fetal bovine serum and then added in a 24-well plate with 2.5×10^4 cell/mL (the final volume of 1 mL). Fucosterol of 0.1, 1, 5, 10, and 20 μM was treated in the B16F10 melanoma cells, respectively. After treatment of 48 hrs, the medium was removed and a 0.5 mg/mL MTT solution was put in each well by 0.3 mL and the B16F10 melanoma cells were incubated in an incubator for 4 hrs. After 4 hrs, the MTT solution was removed and generated formazan was dissolved by adding dimetyl sulfoxide (DMSO) and then absorbance was measured at 570 nm and the result was illustrated in FIG. 1.

With `C/C=C(\CC[C@@H](C)[C@H]1CC[C@H]2[C@@H]3CC=C4C[C@@H](O)CC[C@]4(C)[C@H]3CC[C@]12C)C(C)C` [fucosterol], the “cytotoxicity (MTT)” value is recorded as “the cytotoxicity was not shown”.
